Test results taken from paper PMC9811682 (Frontiers in Chemistry, 2022).
Read-outs that look alike come from different tables or passages of the source.

Tests used:
[1] = target: T1, BChE (EC 3.1.1.8, from equine serum) (Equus caballus, UniProt P81908); experiment: biochemical; type: biochemical; settings: for BChE IR, %: tested at 100 μM, triplicate
T1 construct: BChE (EC 3.1.1.8, from equine serum); purchased Aladdin (Shanghai, China); host or cells: equine serum
Procedure: The fresh spore suspensions of SGP-1 and the seven other strains were inoculated into an Erlenmeyer flask (250 ml) containing 100 ml of liquid medium (glucose 2%, maltose 1%, mannitol 2%, glutamic acid 1%, peptone 0.5%, and yeast extract 0.3% in distilled water) and fermented at 28°C for 12 days on a rotary shaker at 200 rpm. To each fermentation broth was added 200 ml of ethyl acetate (EtOAc), and extraction was performed with the assistance of ultrasonication (40 kHz) for 30 min. The EtOAc solutions were removed in vacuo at 37°C to produce the EtOAc extracts. Each fungal EtOAc extract was dissolved in methanol at a concentration of 100.0 mg/ml, and was further diluted to a […] solution used for an in vitro BChE inhibitory activity assay. A sample of strain SGP-1 was analyzed using an HPLC-photo-diode array detector (PDAD)-UV with an analytical Kromasil C18 column (5 μm, 100 Å, 4.6 mm × 250 mm; Akzo Nobel) on an Agilent 1100 HPLC system equipped with a PDAD (G1316A). The extraction solution in methanol (100.0 mg/ml) was filtered with a 0.45-μm membrane, and then injected (20 μl) into the column, followed by elution with an MeOH-H2O linear gradient (20%→100% MeOH in 20 min followed by 5 min with isocratic 100% MeOH) mobile phase (flow rate 1 ml/min). During the separation procedure, the constituents of the emerging chromatographic peaks were collected in Eppendorf tubes with 2 s of delay. Each eluate was fixed to a volume of 200 μl, which was then used for the BChE inhibitory activity assay. The acquired PDAD data, including the UV spectra of peaks, were processed using Agilent OpenLAB software.
(§1) The inhibitory activities against AChE (EC 3.1.1.7) and BChE (EC 3.1.1.8) of the fungal samples and test compounds were analyzed following Ellman’s method ([Ellman et al., 1961]) with modifications. AChE (EC 3.1.1.7, from electric eel), BChE (EC 3.1.1.8, from equine serum), acetylthiocholine iodide (ATCI), butyrylthiocholine iodide (BTCI), and 5,5′-dithiobis (2-nitrobenzoic acid) (DTNB) were purchased from Aladdin (Shanghai, China). AChE and BChE solutions were prepared with water (0.2 units/ml). ATCI and BTCI solutions (10 mM) were prepared with deionized water before using. A DTNB solution (10 mM) was prepared in a 0.1 M, pH 8.0 solution of potassium dihydrogen phosphate (1.36 g, 10 mmol) in 100 ml of water (PBS). The fungal samples for screening were diluted to 1.0 mg/ml with methanol. The test compounds were dissolved in methanol (10 mM) as stock solutions. Subsequently, at least five different concentrations of each compound (double ratio dilution with methanol) were used to determine the half maximal inhibitory concentration (IC50). The tests were performed using 96-well plates. First, 160 μl of PBS, 2 μl of the test sample solution, 20 μl of AChE or BChE, and 10 μl of DTNB were added and mixed in each well, and then preincubated at 37°C for 10 min. After the addition of 10 μl of ATCI or BTCI, the reaction was initiated and incubated at 37°C for another 10 min. Then, the absorbance was measured at 412 nm. The wells with 2 μl of methanol replacing the test sample solution was used to determine 100% of the enzyme activity, and 20 μl of water replacing the enzyme solution was used to determine the blank value. All of the tests for each sample were performed in triplicate. The inhibition curve was fitted by plotting the inhibition rate vs. the logarithm of the test compound concentration. The IC50 values were calculated using Microsoft Excel software, and the data were expressed as the mean ± SD. The inhibition rate was calculated using the formula: IR% = [(Ac-As)]/[(Ac-Ab)] × 100%, where Ab denotes the absorbance of the blank control without the enzyme solution, Ac represents the absorbance of the control without the sample solution, and As denotes the absorbance of the sample.

[2] = target: T2, AChE (EC 3.1.1.7, from electric eel) (Electrophorus electricus, UniProt O42275); experiment: In vitro AChE inhibitory activity assay (modified Ellman's method); type: biochemical; settings: tested at 100 μM, triplicate
T2 construct: purchased Aladdin (Shanghai, China)
T2 sequence (O42275 24-633): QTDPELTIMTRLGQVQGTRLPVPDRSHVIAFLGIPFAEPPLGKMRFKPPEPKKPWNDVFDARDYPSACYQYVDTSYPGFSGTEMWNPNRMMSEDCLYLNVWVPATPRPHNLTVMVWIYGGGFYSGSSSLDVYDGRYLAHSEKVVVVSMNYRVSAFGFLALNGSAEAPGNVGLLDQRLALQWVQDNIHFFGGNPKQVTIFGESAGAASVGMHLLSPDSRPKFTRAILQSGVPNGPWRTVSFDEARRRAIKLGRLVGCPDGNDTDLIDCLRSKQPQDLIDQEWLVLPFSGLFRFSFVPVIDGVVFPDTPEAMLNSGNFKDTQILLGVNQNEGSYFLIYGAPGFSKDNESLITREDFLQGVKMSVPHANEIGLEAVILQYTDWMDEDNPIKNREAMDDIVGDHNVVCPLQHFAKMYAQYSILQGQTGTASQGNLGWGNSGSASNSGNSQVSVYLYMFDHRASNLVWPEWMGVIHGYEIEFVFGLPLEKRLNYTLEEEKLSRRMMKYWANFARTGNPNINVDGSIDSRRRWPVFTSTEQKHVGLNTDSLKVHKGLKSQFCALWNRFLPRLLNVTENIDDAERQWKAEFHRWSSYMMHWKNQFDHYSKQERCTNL
Procedure: as §1

α-glucosidase = settings: earlier study quoted in discussion; no reference given; cited from earlier work
[3] = target: T1, BChE (EC 3.1.1.8, from equine serum); experiment: Kinetic study of BChE inhibition (Lineweaver-Burk and secondary plots); type: biochemical
Procedure: Kinetic studies were performed using the same protocol as the BChE inhibitory activity assay, and the substrate BTCI was used in a series of concentrations, 0.2, 0.4, 0.5, 0.6, and 0.7 mM. The test compound concentrations were set according to the inhibition IC50 of each compound. The enzymatic reaction was extended to 15 min before the detection of the absorbance. Lineweaver–Burk plots were generated to obtain the kinetic parameters, Michaelis constant (Km) and maximum velocity (Vmax), according to which inhibition modes were determined.

[4] = sample concentration that led to 50% enzyme activity loss, mean ± SD, read-out: BChE IC50
[5] = BChE, competitive inhibition, secondary plot of K vs [I], read-out: Ki (inhibition constant)

T1 sequence (P81908 whole entry): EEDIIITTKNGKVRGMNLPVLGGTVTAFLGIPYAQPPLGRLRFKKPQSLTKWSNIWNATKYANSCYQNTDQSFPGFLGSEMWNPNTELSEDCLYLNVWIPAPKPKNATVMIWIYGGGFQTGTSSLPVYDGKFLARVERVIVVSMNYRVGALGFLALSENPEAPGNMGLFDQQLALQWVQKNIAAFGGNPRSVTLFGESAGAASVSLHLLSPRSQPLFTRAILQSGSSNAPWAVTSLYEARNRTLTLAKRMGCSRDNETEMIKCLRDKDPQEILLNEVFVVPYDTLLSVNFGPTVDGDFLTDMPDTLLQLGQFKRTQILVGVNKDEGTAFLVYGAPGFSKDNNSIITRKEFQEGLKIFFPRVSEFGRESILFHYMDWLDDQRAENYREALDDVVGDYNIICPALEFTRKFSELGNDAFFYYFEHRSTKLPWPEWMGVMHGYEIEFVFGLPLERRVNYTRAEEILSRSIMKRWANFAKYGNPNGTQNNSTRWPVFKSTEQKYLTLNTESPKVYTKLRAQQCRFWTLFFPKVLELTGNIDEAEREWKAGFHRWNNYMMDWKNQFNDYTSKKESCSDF

SMILES | BChE IR, % [1] [%] | BChE IR, % ([1]; listed as galantamine) [%] | IC50 [1, 4] [µM] | AChE IR, % [2] [%] | IC50 (α-glucosidase) [µM] | Ki [3] [µM] | IC50 [1] [µM] | Ki [3, 5] [µM]
COc1ccc2c3c1O[C@H]1C[C@@H](O)C=C[C@@]31CCN(C)C2 [Galantamine, reference compound] | 72.4 ± 1.2 | 72.4 |  |  |  |  |  | 
COC(=O)C1(Cc2ccc(O)c(CCC(C)(C)OC)c2)OC(=O)C(O)=C1c1ccc(O)cc1 (centres unmarked) [Compound 13, aspernolide C] | 22.6 ± 5.3 |  | > 100 | 3.9 ± 0.9 |  |  |  | 
COC(=O)[C@@]1(Cc2ccc(O)c(CC=C(C)C)c2)OC(=O)C(O)=C1c1ccc(O)cc1 [Compound 6, butyrolactone I] | 68.0 ± 4.1 |  |  | −6.7 ± 3.6 | 1.52 | 19.3 | 35.5 ± 1.3 | 
COC(=O)C1(O)OC(=O)C(Cc2ccc(O)c(CCC(C)(C)O)c2)=C1c1ccc(O)cc1 (centres unmarked) [Compound 2, methyl-2-hydroxy-4-(4-hydroxy-3-(3-hydroxy-3-methylbutyl)benzyl)-3-(4-hydroxyphenyl)-5-oxo-2,5-dihydrofuran-2-carboxylate] | 3.2 ± 3.6 |  | > 100 | 7.7 ± 1.0 |  |  |  | 
CCOC(=O)C1(Cc2ccc(O)c(CC=C(C)C)c2)OC(=O)C(O)=C1c1ccc(O)cc1 (centres unmarked) [Compound 7, butyrolactone VII] | 76.0 ± 3.5 |  | 18.4 ± 2.5 | 11.7 ± 1.4 |  |  |  | 12.3
COC(=O)[C@@]1(O)OC(=O)C(Cc2ccc(O)c(CC=C(C)C)c2)=C1c1ccc(O)cc1 [Compound 4, butyrolactone VIII] | 67.3 ± 2.8 |  | 45.8 ± 6.9 | 11.9 ± 1.0 |  |  |  | 23.6
CC(C)=CCc1cc(/C=C2\OC(=O)C(c3ccc(O)c(CC=C(C)C)c3)=C2O)ccc1O [Aspulvinone H, aspulvinone H, reference compound] | 6.5 ± 2.6 |  | > 100 | 9.6 ± 3.4 |  |  |  | 
COC(=O)[C@@]1(O)OC(=O)C(Cc2ccc3c(c2)CCC(C)(C)O3)=C1c1ccc(O)cc1 [Compound 3, flavipesolide B] | 22.5 ± 3.1 |  | > 100 | 19.6 ± 4.2 |  |  |  | 
COC(=O)C1(Cc2ccc(O)c(CC=C(C)C)c2)OC(=O)C(O)=C1c1ccccc1 (centres unmarked) [Compound 5, versicolactone B] | 64.4 ± 3.2 |  | 44.3 ± 3.7 | 10.4 ± 1.9 |  |  |  | 38.2
COC(=O)C1(Cc2ccc(O)c(CCC(C)(C)O)c2)OC(=O)C(O)=C1c1ccc(O)cc1 (centres unmarked) [Compound 12, aspernolide B] | 13.4 ± 1.3 |  | > 100 | 2.2 ± 1.5 |  |  |  | 
COC(=O)C1(Cc2ccc(O)c(CC3OC3(C)C)c2)OC(=O)C(O)=C1c1ccc(O)cc1 (centres unmarked) [Compound 14, butyrolactone III] | -12.3 ± 4.6 |  |  | −4.2 ± 0.3 |  |  | > 100 | 
COC(=O)C1(Cc2ccc(O)cc2)OC(=O)C(O)=C1c1ccc(O)cc1 (centres unmarked) [Compound 9, butyrolactone II] | 19.9 ± 6.0 |  | > 100 | 9.6 ± 0.5 |  |  |  | 
COC(=O)C1(O)OC(=O)C(Cc2ccc(O)c(CCC(C)(C)OC)c2)=C1c1ccc(O)cc1 (centres unmarked) [Compound 1, methyl-2-hydroxy-4-(4-hydroxy-3-(3-methoxy-3-methylbutyl)benzyl)-3-(4-hydroxyphenyl)-5-oxo-2,5-dihydrofuran-2-carboxylate] | 15.6 ± 2.3 |  | > 100 | 11.2 ± 3.6 |  |  |  | 
COC(=O)C1(Cc2ccc3c(c2)CCC(C)(C)O3)OC(=O)C(O)=C1c1ccc(O)cc1 (centres unmarked) [Compound 11, aspernolide A] | 25.4 ± 3.7 |  | > 100 | −0.1 ± 0.7 |  |  |  | 
CC(C)=CCc1cc(CC2OC(=O)C(O)=C2c2ccc(O)cc2)ccc1O (centres unmarked) [Compound 8, 3-hydroxy-5-[[4-hydroxy-3-(3-methyl-2-buten-1-yl)phenyl]methyl]-4-(4-hydroxyphenyl)-2(5H)-furanone] | 60.9 ± 0.6 |  | 45.1 ± 7.2 | 14.2 ± 0.5 |  |  |  | 35.7
COC(=O)C1(Cc2ccc3c(c2)CC(C(C)(C)O)O3)OC(=O)C(O)=C1c1ccc(O)cc1 (centres unmarked) [Compound 15, butytolactone IV] | 33.5 ± 2.3 |  | > 100 | 13.3 ± 5.5 |  |  |  | 
CC1(C)CCc2cc(CC3OC(=O)C(O)=C3c3ccc(O)cc3)ccc2O1 (centres unmarked) [Compound 10, 5-[(3,4-dihydro-2,2-dimethyl-2H-1-benzopyran-6-yl)methyl]-3-hydroxy-4-(4-hydroxyphenyl)-2(5H)-furanone] | 33.3 ± 7.5 |  | > 100 | 23.2 ± 1.1 |  |  |  | 
